Where two headings read alike, the source gives them in different places.
Key:
[1] = target: HLA-A*24:02 (Homo sapiens, UniProt P04439, D101N/D140Y/D185E/E176V/E190D/F33S/G103R/G107R/I119L/I121M/I306V/K335N/L105A/L180Q/L300P/N151K/N90K/Q86E/Q94H/R106L/R138H/R89G/T104I/T345S/V100E/W191G/Y123F); assay: HLA stabilization assay using RMA-S-A2402 cells; format: binding; conditions: RMA-S-A2402 cells
[2] = test system: HLA-A*24:02-restricted CD8+ T cells; format: cell-based, human; conditions: for IFN-γ-producing cells among CD8+ T cells (Fig. 1f): bulk T cells
[3] = 14 vaccinated individuals, second time point 11–22 weeks after the first point of analysis

VYSSANNCTF [S-VYF10]
MFI, HLA-A2402 (APC), representative staining ([1]; Suppl. Fig. 3b (for Fig. 4a, 4b), peptide(-) 14.8, 26 °C (Maximum) 32.7): 26.9
MFI, HLA-A2402 (APC), representative staining ([1]; Suppl. Fig. 3c (for Fig. 4c), peptide(-) 11.7, 26 °C (Maximum) 28.9): 32.7
number of individuals with specific T cells at both time points [2, 3]: two
number of individuals with specific T cells at only the first time point [2, 3]: one
IFNg-producing cells among CD8 T cells (%) ([2]; Fig.6a, donor U-32, 1.430 weeks since 2nd dose of vaccination): 0.080%
IFNg-producing cells among CD8 T cells (%) ([2]; Fig.6a, donor U-32, 15.290 weeks since 2nd dose of vaccination): 0.000%
IFNg-producing cells among CD8 T cells (%) ([2]; Fig.6a, donor V1, 19.000 weeks since 2nd dose of vaccination): 0.000%
IFNg-producing cells among CD8 T cells (%) ([2]; Fig.6a, donor V1, 31.710 weeks since 2nd dose of vaccination): 0.710%
IFNg-producing cells among CD8 T cells (%) ([2]; Fig.6a, donor V2, 9.570 weeks since 2nd dose of vaccination): 0.330%
IFNg-producing cells among CD8 T cells (%) ([2]; Fig.6a, donor V2, 31.570 weeks since 2nd dose of vaccination): 0.000%
IFNg-producing cells among CD8 T cells (%) ([2]; Fig.6a, donor V5, 10.570 weeks since 2nd dose of vaccination): 0.000%
IFNg-producing cells among CD8 T cells (%) ([2]; Fig.6a, donor V5, 31.710 weeks since 2nd dose of vaccination): 1.030%
IFNg-producing cells among CD8 T cells (%) ([2]; Fig.6a, donor V6, 9.570 weeks since 2nd dose of vaccination): 0.590%
IFNg-producing cells among CD8 T cells (%) ([2]; Fig.6a, donor V6, 31.000 weeks since 2nd dose of vaccination): 0.930%
IFNg-producing cells among CD8 T cells (%) ([2]; Fig.6a, donor V7, 10.140 weeks since 2nd dose of vaccination): 0.000%
IFNg-producing cells among CD8 T cells (%) ([2]; Fig.6a, donor V7, 31.140 weeks since 2nd dose of vaccination): 0.470%
IFNg-producing cells among CD8 T cells (%) ([2]; Fig.6a, donor V8, 9.860 weeks since 2nd dose of vaccination): 0.000%
IFNg-producing cells among CD8 T cells (%) ([2]; Fig.6a, donor V8, 30.140 weeks since 2nd dose of vaccination): 0.160%
IFNg-producing cells among CD8 T cells (%) ([2]; Fig.6a, donor V9, 20.570 weeks since 2nd dose of vaccination): 0.000%
IFNg-producing cells among CD8 T cells (%) ([2]; Fig.6a, donor V9, 31.570 weeks since 2nd dose of vaccination): 0.930%
IFNg-producing cells among CD8 T cells (%) ([2]; Fig.6a, donor V12, 1.000 weeks since 2nd dose of vaccination): 0.000%
IFNg-producing cells among CD8 T cells (%) ([2]; Fig.6a, donor V12, 9.290 weeks since 2nd dose of vaccination): 0.000%
IFNg-producing cells among CD8 T cells (%) ([2]; Fig.6a, donor V13, 9.000 weeks since 2nd dose of vaccination): 2.650%
IFNg-producing cells among CD8 T cells (%) ([2]; Fig.6a, donor V13, 30.290 weeks since 2nd dose of vaccination): 3.770%
IFNg-producing cells among CD8 T cells (%) ([2]; Fig.6a, donor V14, 2.000 weeks since 2nd dose of vaccination): 1.600%
IFNg-producing cells among CD8 T cells (%) ([2]; Fig.6a, donor V14, 17.000 weeks since 2nd dose of vaccination): 1.540%
IFNg-producing cells among CD8 T cells (%) ([2]; Fig.6a, donor V15, 6.860 weeks since 2nd dose of vaccination): 0.000%
IFNg-producing cells among CD8 T cells (%) ([2]; Fig.6a, donor V15, 25.860 weeks since 2nd dose of vaccination): 0.380%
IFNg-producing cells among CD8 T cells (%) ([2]; Fig.6a, donor V16, 8.860 weeks since 2nd dose of vaccination): 1.180%
IFNg-producing cells among CD8 T cells (%) ([2]; Fig.6a, donor V16, 22.710 weeks since 2nd dose of vaccination): 0.000%
IFNg-producing cells among CD8 T cells (%) ([2]; Fig.6a, donor V17, 4.140 weeks since 2nd dose of vaccination): 0.000%
IFNg-producing cells among CD8 T cells (%) ([2]; Fig.6a, donor V17, 18.000 weeks since 2nd dose of vaccination): 0.000%
IFNg-producing cells among CD8 T cells (%) ([2]; convalescent donor C2, 45.290 weeks since PCR-confirmed diagnosis, […], peptide-pulsed C1R-A2402): 1.019%
IFNg-producing cells among CD8 T cells (%) ([2]; convalescent donor C3, 2.430 weeks since PCR-confirmed diagnosis, […], peptide-pulsed C1R-A2402): 0.261%
IFNg-producing cells among CD8 T cells (%) ([2]; convalescent donor C4, 35.000 weeks since PCR-confirmed diagnosis, […], peptide-pulsed C1R-A2402): 0.317%
IFNg-producing cells among CD8 T cells (%) ([2]; convalescent donor C5, 41.430 weeks since PCR-confirmed diagnosis, […], peptide-pulsed C1R-A2402): 0.327%
IFNg-producing cells among CD8 T cells (%) ([2]; convalescent donor C6, 20.000 weeks since PCR-confirmed diagnosis, […], peptide-pulsed C1R-A2402): 1.170%
IFNg-producing cells among CD8 T cells (%) ([2]; convalescent donor C7, 21.710 weeks since PCR-confirmed diagnosis, […], peptide-pulsed C1R-A2402): 0.230%
IFNg-producing cells among CD8 T cells (%) ([2]; convalescent donor C8, 47.860 weeks since PCR-confirmed diagnosis, […], peptide-pulsed C1R-A2402): 0.410%
IFNg-producing cells among CD8 T cells (%) ([2]; convalescent donor C9, 21.860 weeks since PCR-confirmed diagnosis, […], peptide-pulsed C1R-A2402): 0.000%
IFNg-producing cells among CD8 T cells (%) ([2]; convalescent donor C10, 24.570 weeks since PCR-confirmed diagnosis, […], peptide-pulsed C1R-A2402): 1.220%
IFNg-producing cells among CD8 T cells (%) ([2]; convalescent donor C11, 24.290 weeks since PCR-confirmed diagnosis, […], peptide-pulsed C1R-A2402): 0.000%
IFN-γ-producing cells among CD8+ T cells (Fig. 1f) ([2]; donor V10, 0 weeks since 1st dose of vaccination, C1R-A2402 pre-pulsed with 1 μM peptide): 1.450%
IFN-γ-producing cells among CD8+ T cells (Fig. 1f) ([2]; donor V10, 3 weeks since 1st dose of vaccination, C1R-A2402 pre-pulsed with 1 μM peptide): 0.420%
IFN-γ-producing cells among CD8+ T cells (Fig. 1f) ([2]; donor V10, 5 weeks since 1st dose of vaccination, C1R-A2402 pre-pulsed with 1 μM peptide): 0.290%
IFN-γ-producing cells among CD8+ T cells (Fig. 1f) ([2]; donor V10, 7 weeks since 1st dose of vaccination, C1R-A2402 pre-pulsed with 1 μM peptide): 0.000%
IFN-γ-producing cells among CD8+ T cells (Fig. 1f) ([2]; donor V12, 0 weeks since 1st dose of vaccination, C1R-A2402 pre-pulsed with 1 μM peptide): 0.310%
IFN-γ-producing cells among CD8+ T cells (Fig. 1f) ([2]; donor V12, 3 weeks since 1st dose of vaccination, C1R-A2402 pre-pulsed with 1 μM peptide): 0.000%
IFN-γ-producing cells among CD8+ T cells (Fig. 1f) ([2]; donor V12, 5 weeks since 1st dose of vaccination, C1R-A2402 pre-pulsed with 1 μM peptide): 0.540%
IFN-γ-producing cells among CD8+ T cells (Fig. 1f) ([2]; donor V12, 7 weeks since 1st dose of vaccination, C1R-A2402 pre-pulsed with 1 μM peptide): 0.000%
IFN-γ-producing cells among CD8+ T cells (Fig. 1f) ([2]; donor V14, 0 weeks since 1st dose of vaccination, C1R-A2402 pre-pulsed with 1 μM peptide): 0.000%
IFN-γ-producing cells among CD8+ T cells (Fig. 1f) ([2]; donor V14, 2 weeks since 1st dose of vaccination, C1R-A2402 pre-pulsed with 1 μM peptide): 0.000%
IFN-γ-producing cells among CD8+ T cells (Fig. 1f) ([2]; donor V14, 5 weeks since 1st dose of vaccination, C1R-A2402 pre-pulsed with 1 μM peptide): 1.580%
IFN-γ-producing cells among CD8+ T cells (Fig. 1f) ([2]; donor V14, 7 weeks since 1st dose of vaccination, C1R-A2402 pre-pulsed with 1 μM peptide): 0.000%
number of individuals with specific T cells after the second vaccine dose ([2]; longitudinal analysis of 3 vaccinated individuals): one
Freq of responder (%) ([2]; of 17 vaccinated HLA-A*24:02+ individuals (Fig. 4b)): 23.5%
IFNg-producing cells among CD8 T cells (%) ([2]; vaccinated donor V1, 19.000 weeks since 2nd dose, […], C1R-A2402 pre-pulsed with 1 μM peptide): 0%
IFNg-producing cells among CD8 T cells (%) ([2]; vaccinated donor V2, 9.570 weeks since 2nd dose, […], C1R-A2402 pre-pulsed with 1 μM peptide): 0.331%
IFNg-producing cells among CD8 T cells (%) ([2]; vaccinated donor V3, 8.860 weeks since 2nd dose, […], C1R-A2402 pre-pulsed with 1 μM peptide): 0.073%
IFNg-producing cells among CD8 T cells (%) ([2]; vaccinated donor V4, 10.430 weeks since 2nd dose, […], C1R-A2402 pre-pulsed with 1 μM peptide): 2.41%
IFNg-producing cells among CD8 T cells (%) ([2]; vaccinated donor V5, 10.570 weeks since 2nd dose, […], C1R-A2402 pre-pulsed with 1 μM peptide): 0%
IFNg-producing cells among CD8 T cells (%) ([2]; vaccinated donor V6, 9.570 weeks since 2nd dose, […], C1R-A2402 pre-pulsed with 1 μM peptide): 0.593%
IFNg-producing cells among CD8 T cells (%) ([2]; vaccinated donor V7, 10.140 weeks since 2nd dose, […], C1R-A2402 pre-pulsed with 1 μM peptide): 0%
IFNg-producing cells among CD8 T cells (%) ([2]; vaccinated donor V8, 9.860 weeks since 2nd dose, […], C1R-A2402 pre-pulsed with 1 μM peptide): 0%
IFNg-producing cells among CD8 T cells (%) ([2]; vaccinated donor V9, 20.570 weeks since 2nd dose, […], C1R-A2402 pre-pulsed with 1 μM peptide): 0%
IFNg-producing cells among CD8 T cells (%) ([2]; vaccinated donor V10, 2.000 weeks since 2nd dose, […], C1R-A2402 pre-pulsed with 1 μM peptide): 0.3%
IFNg-producing cells among CD8 T cells (%) ([2]; vaccinated donor V11, 1.430 weeks since 2nd dose, […], C1R-A2402 pre-pulsed with 1 μM peptide): 0.076%
IFNg-producing cells among CD8 T cells (%) ([2]; vaccinated donor V12, 1.000 weeks since 2nd dose, […], C1R-A2402 pre-pulsed with 1 μM peptide): 0%
IFNg-producing cells among CD8 T cells (%) ([2]; vaccinated donor V13, 9.000 weeks since 2nd dose, […], C1R-A2402 pre-pulsed with 1 μM peptide): 2.649%
IFNg-producing cells among CD8 T cells (%) ([2]; vaccinated donor V14, 2.000 weeks since 2nd dose, […], C1R-A2402 pre-pulsed with 1 μM peptide): 1.601%
IFNg-producing cells among CD8 T cells (%) ([2]; vaccinated donor V15, 6.860 weeks since 2nd dose, […], C1R-A2402 pre-pulsed with 1 μM peptide): 0%
IFNg-producing cells among CD8 T cells (%) ([2]; vaccinated donor V16, 8.860 weeks since 2nd dose, […], C1R-A2402 pre-pulsed with 1 μM peptide): 1.178%
IFNg-producing cells among CD8 T cells (%) ([2]; vaccinated donor V17, 4.140 weeks since 2nd dose, […], C1R-A2402 pre-pulsed with 1 μM peptide): 0%
time after the second vaccine dose for which epitope-specific memory CD8+ T cells were detectable / maintained ([2]; vaccinated individuals (8 individuals)): > 30 weeks
